Measured values published in patent US20240361301A1, “METHODS AND COMPOSITIONS FOR MODULATING GOBLET CELLS AND FOR MUCO-OBSTRUCTIVE DISEASES” (Flagship Pioneering Innovations VI, LLC, priority 2021, published 2024).

Experiments:
[1] = tested on: Human bronchial epithelial cells (HBECs) from COPD donors; experiment: IL-13 induced goblet hyperplasia in COPD donor HBEC air-liquid interface culture, qPCR; type: cell-based; settings: 0.3 ng/ml IL-13, ALI day 14, vs DMSO
Source text: Air-liquid interface (ALI) differentiation of primary human bronchial epithelial cells (HBECs) is an accepted in vitro model of IL-13-induced goblet cell hyperplasia. HBECs were initially thawed into T75 flasks in PneumaCult maintenance media, allowed to expand, then seeded into apical chamber of transwells. After reaching confluency, medium was removed from the apical and basal chambers, and replaced only in the basal chamber with complete PneumaCult-ALI Medium to start air-liquid interface (ALI) differentiation. Cells were differentiated under ALI conditions for 14 days, in presence or absence of IL-13. Medium in the basal chamber containing IL-13 and test compounds was replenished 3 times a week, and excess mucus was washed from the apical chamber with PBS twice a week starting on day 7. At day 14, differentiation to goblet, ciliated, and club cells is assessed by histology (IHC) or qPCR, using goblet marker (Muc5ac), ciliated cell markers (Foxj1, Acetyl α-tubulin) and club cell marker (Scgb1a1) (FIG. 5).
Human bronchial epithelial cells (HBECs) from two COPD donors were differentiated in the presence of 0.3 ng/ml IL-13 and test compounds. At day 14, cultures were processed for qPCR, and evaluated for lung epithelial markers: goblet (Muc5ac), ciliated (Foxj1), club (Scgb1a1). 2^-ΔCt values were transformed to log form and normalized to DMSO. […]

[2] = tested on: mouse intestinal organoids; experiment: Mouse small intestinal organoid differentiation, lineage markers by Q-PCR; type: cell-based; settings: mouse intestinal organoids in ENR media, after 5 days of treatments, FIG. 1
Source text: Cryopreserved mouse intestinal organoids derived from small intestine were obtained from Stem Cell Technologies. The organoids were thawed and propagated in Intesticult Growth Medium (Mouse) (purchased from Stem Cell Technologies) following the company's instructions. Briefly, approximately 100 organoid fragments/well are embedded in 6 Matrigel domes in 6-well plates and growth media is renewed every 2-3 days. The organoids are passaged every 5-6 days in 1:4 ratio. To assess the potential of the predicted perturbations to induce or reduce the goblet cell lineage during organoid differentiation, an in vitro assay was established to induce the various intestinal lineages (enterocytes, goblet cells, Paneth cells, Enteroendocrine cells) based on published data (Yin et al, Nat. Meth. 2013). Briefly, organoid fragments are embedded in Matrigel and grown in custom-made media in the presence of EGF, Noggin, Rspondin (ENR) supplemented with the indicated factors (Table 4) that are known to induce markers of the various intestinal lineages. The expression of markers and the induction of the various cell lineages was assessed by Q-PCRs after 5 days of treatments (FIG. 1). Further characterization of the organoids will be performed by immunofluorescence staining and flow cytometry. For immunofluorescence commercially available antibodies against Muc2, ChrA, and ALPI will be used.

[3] = tested on: mouse intestinal organoids; settings: factors known to induce markers of the intestinal lineages (Yin et al.), ENR media; cited from earlier work

## CC[C@H]1OC(=O)[C@H](C)[C@@H](O[C@H]2C[C@@](C)(OC)[C@@H](O)[C@H](C)O2)[C@H](C)[C@@H](O[C@@H]2O[C@H](C)C[C@H](N(C)C)[C@H]2O)[C@](C)(O)C[C@@H](C)CN(C)[C@H](C)[C@@H](O)[C@]1(C)O [C]
[1]; FIG. 6A
  goblet cells / goblet hyperplasia (Muc5ac qPCR): inhibited goblet cells
[1]; FIG. 6B-6C
  differentiation to ciliated (Foxj1) and club (Scgb1a1) cells (qPCR): promoting or maintaining differentiation to ciliated and club cells

## C[C@H](NC(=O)Cc1cc(F)cc(F)c1)C(=O)N[C@H](C(=O)OC(C)(C)C)c1ccccc1 [DAPT]
[2]
  expression of muc2 gene, a marker of Goblet cells (Q-PCR): induces the expression of muc2 gene
[3]
  Cell lineage induced by factor: Enteroendocrine Cells, Paneth

## Cc1ccc2nc(NC(=O)CSc3nc4c(c(=O)n3-c3ccccc3)SCC4)sc2c1 [IWP2]
[3]
  Cell lineage induced by factor: Enterocytes, Enteroendocrine Cells
